Measurements published in patent publication US12576097B2, “Anti-tumor effective component of Hedyotis diffusa, preparation method therefor and use thereof” (Guangdong New Ear Life Technology Co., Ltd., priority 2020, dated 2026).
“Also recorded” adds a separate entry of the source. Marks after values point to notes of the source that are not given here.

Key:
[1] = tested on: human liver cancer Hep-G2 cells; experiment: Inhibition rate on human liver cancer Hep-G2 cells (CCK-8); format: cell-based; details: 24 h; for inhibition rate: 3 mg/mL drug solutions
Experimental: A cryopreservation tube containing liver cancer Hep-G2 cells was taken out from a liquid nitrogen tank, quickly placed in a water bath at 38-39° C., and continuously shaken to be fully thawed within 1 min. The cryopreservation tube was centrifuged at 800 r/min for 9 min, and sprayed with 75% alcohol on the outside thereof, and then put into a ultra-clean table. The resulting supernatant was sucked and discarded. 1 ml of DMEM complete medium was added, and a mixture of the cells and the DMEM complete medium was blown evenly, and then the cells were transferred to a 25 ml culture dish. 6-8 ml of DMEM complete medium was added, and a mixture of the cells and the DMEM complete medium was gently blown evenly, and put into a constant temperature incubator at 37° C. with 5% CO2.
The old medium in the item 2.1 was sucked out. 2 ml of PBS buffer solution was added, and the cells were washed by gently shaking the culture flask. The PBS buffer solution was sucked out to remove the loose, dead and senescent cells and their metabolic wastes, and the cells were washed for 2-3 times. 2 ml of trypsin was added, and the culture dish was gently shaken for 30 s. After the trypsin was sucked out, the culture dish was put into the incubator for full digestion for 3 min, and 2 ml of fresh DMEM complete culture was added. The cells were gently blown and dispersed into individual cells under a microscope, and then 6-8 ml of fresh DMEM complete medium was added and the cells were incubated in a constant temperature incubator.
2 mL trypsin was added into the cells cultured in the item 2.2 in the logarithmic growth phase and the cells were digested for 30 s. After the trypsin was sucked out, the culture dish was placed into the incubator for full digestion for 3 min, and 2 mL of fresh medium was added. The cells were gently blown to disperse the cells into individual cells under the microscope. 10 μL of cell suspension and 10 μL of 0.4% Trypan blue staining solution were mixed well to fully stain the cells. 10 μL of the stained cell suspension was added to a cell counting plate, and the number of cells was counted by a fully automatic cell counter. The cell suspension was diluted to 2×10^5 cells/mL with a DMEM complete medium. 100 μL of cell suspension was sucked with a multichannel pipette and seeded into a 96-well plate and incubated in a constant temperature incubator at 37° C. with 5% CO2 for 24 h.
30 mL of DMEM complete medium was accurately measured, 30 μL of DMSO was added, and uniform mixing was conducted to prepare 0.1% DMSO medium. […] The kaempferol solution and the methyl ester solution having the above concentrations were uniformly mixed to prepare drug solutions having the desired ratio based on the mass ratio of kaempferol to methyl ester being 1:1, 1:2, 1:3, 1:4, 1:5, 5:1, 4:1, 3:1 and 2:1, 400 μL of each drug solution. 1 mg/mL of 5-fluorouracil solution was diluted to a concentration of 800, 600, 400, 200, 100, 50, 25 μg/mL, respectively, 400 μL of each drug solution.
The old medium in the 96-well plate in the item 2.3 was sucked out, and 100 μL of PBS buffer solution was added to each well to remove the loose, dead and senescent cells and their metabolic wastes. After that, the PBS buffer solution was sucked out. 100 μL of the prepared drug solution was added to each well, 3 wells in parallel. A negative control was set up, in which an equal volume of DMEM complete medium containing 0.1 vol % DMSO was added to each well, 3 wells in parallel. A blank control was a DMEM complete medium containing 0.1 vol % DMSO free of cells, 3 wells in parallel. The cells were incubated for 24 h in a constant temperature incubator at 37° C. with 5% CO2.
The DMEM complete medium containing 0.1 vol % DMSO in the drug solutions and negative control in the 96-well plate in the item 2.5 were sucked out. […]

[2] = tested on: Solid tumor cell line S180; experiment: In-vivo anti-tumor experiment after S180 tumor inoculation in mice; design: species or system ICR mice; details: 9 days; for relative tumor weight mean ± SD: S180 tumor-bearing ICR mice; for inhibition rate: vs model group; for best dose for tumor inhibition: dose with the highest inhibition rate, gavage
Experimental: Solid tumor cell line S180 cryopreservation tube were taken out from a liquid nitrogen tank and quickly placed into water at 37° C. with occasional shaking. After cryopreserved cell mother liquor was thawed, the lid edge of the cryopreservation tube was wiped with an alcohol swab. The thawed cell liquor was injected intraperitoneally into the peritoneal cavities of ICR mice by a syringe. The mice were kept at room temperature of 25±5° C., humidity of 60±10%, natural light, and free to ingest food and water. After about one week, ascites in the peritoneal cavities of the ICR mice were sucked by a syringe and injected into the peritoneal cavities of new ICR mice at a dose of 0.5 ml per mouse for passage for standby application.
ICR class II mice, weighing about 18-22 g. Feeding conditions: room temperature of 25±5° C., humidity of 60±10%, natural light, free intake of water, and all mice were kept in the feeding environment for adaptive feeding for four days, fasted for 12 h before the experiment, free intake of water.
(§1) The experimental instruments were placed in a clean table and sterilized for about 30 min by turning on a UV lamp. The mice that were injected with ascites (about one week) were sacrificed by cervical dislocation, and abdomens of the mice were wiped with an alcohol swab. A 20 ml syringe was selected to suck the ascites (milky white is preferred) from the mice. The sucked ascites were placed in a sterile vial, and the vial was placed in a small box with ice. A certain amount of ascites was sucked onto a counting plate and placed under a microscope for counting, and the number of the cells was 10^7 as a base for tumor inoculation (1:2) and passage (1:5).
(§2) The adaptively fed ICR class II male mice were taken, and wiped with an alcohol swab on the armpit areas of the right forelimbs. The axillary cavities of the right forelimbs of the mice were inoculated with diluted mice ascite cell (10^7 cells) suspension at 0.2 ml per mouse. After tumor inoculation, the mice were fed and watered freely. One hour later, the drug was administered by gavage.
(§3) 168 ICR class II male mice with a weight of 18-22 g were used. The mice were kept under the conditions of the item 2.2 for adaptive feeding for four days before the experiment. After four days, the mice were weighed and their autonomy was measured. […] Each mouse was inoculated with S180 tumor according to the method in the item 2.3, and the drug was administered by gavage after inoculation.
(§4) A appropriate amount of test samples were weighed precisely, and prepared into test sample solutions having the desired concentrations by using a 5 vol % ethanol aqueous solution as a solvent, i.e.: the effective parts of 5 mg/kg, 10 mg/kg and 20 mg/kg correspond to the test sample solutions of the groups of the effective part 5, effective part 10, and effective part 20, respectively; E-6-O-(p-coumaroyl)scandoside methyl ester of 2.5 mg/kg, 5 mg/kg, 10 mg/kg, and 20 mg/kg correspond to the test sample solutions of the groups of methyl ester 2.5, methyl ester 5, methyl ester 10 and methyl ester 20, respectively; kaempferol-3-O-[2-O-(6-O-E-feruloyl)-β-D-glucopyranosyl]-β-D-galactopyranose of 2.5 mg/kg, 5 mg/kg, 10 mg/kg and 20 mg/kg correspond to the test sample solutions of the groups of kaempferol 2.5, kaempferol 5, kaempferol 10 and kaempferol 20, respectively. […] Each mouse was administered by gavage at a dose of 0.2 ml/10 g. During the administration period, the mice were fed at 3 g/mouse and ingested water and food freely. All mice were continuously administered for 9 days, and sacrificed by decapitation on day 10. Blood, tumor, liver, spleen, and thymus of mice were collected. The blood collected was placed in a low temperature environment and sent out for blood check. The weight of the tumor, liver, spleen, and thymus and the size of the tumor were recorded.

[3] = tested on: Solid tumor cell line S180; experiment: In-vivo anti-tumor experiment of E-6-O-(p-coumaroyl)scandoside methyl ester and its metabolite p-coumaric acid (S180 tumor); design: species or system ICR mice; details: 10 mg/kg by gavage, 9 days; for relative tumor weight mean ± SD: S180 tumor-bearing ICR mice; for inhibition rate: vs model group
Experimental: as §1, §2
30 ICR class II male mice with a weight of 18-22 g were used. The mice were adaptively fed for four days under the conditions of the item 2.2 before the experiment. After four days, the mice were weighed and their autonomy was measured. The ICR mice were randomly divided into three groups, namely: a model group, methyl ester 10, p-coumaric acid 10, 10 mice in each group. Each mouse was inoculated with S180 tumor according to the method of the item 2.3, and the drug was administered by gavage after inoculation.
The appropriate amount of test samples were weighed precisely and prepared into test sample solutions having the desired concentrations by using a 5 vol % ethanol aqueous solution as a solvent, i.e.: E-6-O-(p-coumaroyl)scandoside methyl ester of 10 mg/kg; p-coumaric acid of 10 mg/kg. […] The blank group was given a solvent, the positive drug control group was given the cyclophosphamide solution, and the other groups were given the corresponding drugs and doses. Each mouse was administered by gavage at a dose of 0.2 ml/10 g. The mice were fed at 3 g/mouse and ingested water and food freely during the administration period. All mice were continuously administered for 9 days and sacrificed by decapitation on day 10. Blood, tumor, liver, spleen and thymus of the mice were collected. The blood obtained was placed in a low-temperature environment and sent out for blood check. The weight of the tumor, liver, spleen and thymus and the size of the tumor were recorded.
(§5) The recorded results were expressed as mean plus or minus standard deviation (X±SD), and the data were analyzed by using statistical software SPSS 11.5 software.

[4] = Spleen and thymus weight and blood count of S180 tumor-bearing mice; format: in vivo, ICR mice; details: for relative spleen weight compared with model group: FIG. 5; for relative thymus weight compared with model group: FIG. 6; for number of leukocytes compared with model group: FIG. 7; for percentage of lymphocytes compared with model group: FIG. 8
Experimental: as §3, §4, §5

| Molecule | relative tumor weight mean ± SD ([2]; 2.5 mg/kg by gavage) | inhibition rate ([2]; 2.5 mg/kg by gavage) [%] | relative tumor weight mean ± SD ([2]; 5 mg/kg by gavage) | inhibition rate ([2]; 5 mg/kg by gavage) [%] | relative tumor weight mean ± SD ([2]; 10 mg/kg by gavage) | inhibition rate ([2]; 10 mg/kg by gavage) [%] | relative tumor weight mean ± SD ([2]; 20 mg/kg by gavage) | inhibition rate ([2]; 20 mg/kg by gavage) [%] | best dose for tumor inhibition [2] [mg/kg] | relative tumor weight mean ± SD [3] | inhibition rate [3] [%] | relative spleen weight compared with model group ([4]; 5 mg/kg) | relative thymus weight compared with model group ([4]; 5 mg/kg) | number of leukocytes compared with model group ([4]; 5 mg/kg) | percentage of lymphocytes compared with model group ([4]; 5 mg/kg) | inhibition rate ([1]; 1st measurement) [%] | inhibition rate ([1]; 2nd measurement) [%] | inhibition rate ([1]; 3rd measurement) [%] | further results |
| --- | --- | --- | --- | --- | --- | --- | --- | --- | --- | --- | --- | --- | --- | --- | --- | --- | --- | --- | --- |
| O=c1[nH]cc(F)c(=O)[nH]1 [5-Fluorouracil, 5-fluorouracil] | – | – | – | – | – | – | – | – | – | – | – | – | – | – | – | – | – | – | inhibition at 25 µg/mL ([1]; Homo sapiens, HepG2, 25 μg/mL): 7.34%; inhibition at 50 µg/mL ([1]; Homo sapiens, HepG2, 50 μg/mL): 11.3%; inhibition at 100 µg/mL ([1]; Homo sapiens, HepG2, 100 μg/mL): 13.9%; inhibition at 200 µg/mL ([1]; Homo sapiens, HepG2, 200 μg/mL): 17.8%; inhibition at 400 µg/mL ([1]; Homo sapiens, HepG2, 400 μg/mL): 39.5%; inhibition at 600 µg/mL ([1]; Homo sapiens, HepG2, 600 μg/mL): 56.1%; inhibition at 800 µg/mL ([1]; Homo sapiens, HepG2, 800 μg/mL): 61.5%; inhibition at 1000 µg/mL ([1]; Homo sapiens, HepG2, 1000 μg/mL): 68% |
| COC(=O)C1=COC(O[C@@H]2O[C@H](CO)[C@@H](O)[C@H](O)[C@H]2O)C2C(CO)=CC(OC(=O)/C=C/c3ccc(O)cc3)C12 (stereo partly drawn) [Methyl ester, E-6-O-(p-coumaroyl)scandoside methyl ester] | 6.49 ± 1.56* 10^−2 | 21.92 | 4.24 ± 2.24* 10^−2 | 48.97 | 5.81 ± 2.19* 10^−2 | 30.17 | 5.98 ± 1.19* 10^−2 | 28.06 | 5 | 4.65 ± 3.29* 10^−2 | 36.59 | increase | increase | significant increase; also recorded: highest | increased most significantly | 7.558 | 5.565 | 7.273 | inhibition rate ([2]; 5 mg/kg by gavage, listed as E-6-O-(p-coumaroyl)scandoside methyl ester): 48.97%; number of erythrocytes compared among groups ([4]; 5 mg/kg): highest |
| O=P1(N(CCCl)CCCl)NCCCO1 (stereo not drawn) [Positive control, Cyclophosphamide, reference compound] | – | – | – | – | – | – | 3.56 ± 0.77* 10^−2 | 57.19 | – | – | – | – | – | – | – | – | – | – | number of erythrocytes compared with model group ([4]; 20 mg/kg): lower; relative spleen weight compared with model group ([4]; 20 mg/kg): decrease; also recorded: lower; relative thymus weight compared with model group ([4]; 20 mg/kg): increase; number of leukocytes compared with model group ([4]; 20 mg/kg): significant decrease; also recorded: lower; percentage of lymphocytes compared with model group ([4]; 20 mg/kg): increase |
| O=C(O)/C=C/c1ccc(O)cc1 [p-coumaric acid, reference compound] | – | – | – | – | – | – | – | – | – | 6.07 ± 2.91* 10^−2 | 17.20 | – | – | – | – | – | – | – | – |
| kaempferol-3-O-[2-O-(6-O-E-feruloyl)-β-D-glucopyranosyl]-β-D-galactopyranose | 7.01 ± 1.56 10^−2 | 15.76 | 4.49 ± 1.95 10^−2 | 45.96 | 6.04 ± 2.78 10^−2 | 27.36 | 5.59 ± 1.96 10^−2 | 32.75 | 5 | – | – | increase | increase | significant decrease | increase | 18.7 | 12.07 | 19.28 | inhibition rate ([2]; 5 mg/kg by gavage, listed as kaempferol-3-O-[2-O-(6-O-E-feruloyl)-β-D-glucopyranosyl]-β-D-galactopyranose): 45.96% |
